# Laboratory results from paper PMC10120551, “Novel Glu-based pyrazolo[3,4-d]pyrimidine analogues: design, synthesis and biological evaluation as DHFR and TS dual inhibitors” (Journal of Enzyme Inhibition and Medicinal Chemistry, 2023).
# Experiments:
# [1] = tested on: SK-OV-3; test: cells; conditions: Homo sapiens
# [2] = tested on: MCF7; test: cells; conditions: Homo sapiens
# [3] = tested on: HS 578 T; test: cells; conditions: Homo sapiens
# [4] = tested on: HOP-92; test: cells; conditions: Homo sapiens
# [5] = tested on: U251; test: cells; conditions: Homo sapiens
# [6] = tested on: BT-549; test: cells; conditions: Homo sapiens
# [7] = tested on: HCC-2998; conditions: HCC-2998, Colon cancer; five-dose 0.01–100 µM
# [8] = tested on: M14; test: cells; conditions: Homo sapiens
# [9] = tested on: RPMI-8226; conditions: RPMI-8226, Leukaemia; five-dose 0.01–100 µM
# [10] = tested on: NCI-H522; test: cells; conditions: Homo sapiens
# [11] = tested on: BT-549; conditions: BT-549, Breast cancer; five-dose 0.01–100 µM
# [12] = tested on: OVCAR-4; conditions: OVCAR-4, Ovarian cancer; five-dose 0.01–100 µM
# [13] = tested on: MDA-MB-231/ATCC; conditions: Breast cancer, five-dose 0.01–100 µM
# [14] = tested on: K-562; test: cells; conditions: Homo sapiens
# [15] = tested on: MDA-MB-435; test: cells; conditions: Homo sapiens
# [16] = tested on: MDA-MB-468; conditions: MDA-MB-468, Breast cancer; five-dose 0.01–100 µM
# [17] = tested on: MALME-3M; conditions: Melanoma, five-dose 0.01–100 µM
# [18] = tested on: SNB-19; test: cells; conditions: Homo sapiens
# [19] = tested on: IGROV1; test: cells; conditions: Homo sapiens
# [20] = tested on: PC-3 (Prostate cancer); test: MTT cytotoxicity assay; assay type: cell-based, human
# Experimental: (§1) The MTT assay was carried out according to the procedure cited earlier. Briefly, in a 96-well plate, either cancer or normal cells were seeded (10^6 cells/cm^2; 100 µL/well) and incubated for 12 h at 37 °C and CO2 (5%), then serial dilutions of compound 6i were added and incubated for 48 h using DMSO control (0.5% V/V). MTT (3-(4,5-dimethylthiazoyl)-2,5-diphenyl-tetrazolium bromide; Cat. No. M-5655) 5 mg/mL was then added. After 4 h incubation, the formed MTT formazan crystals were solubilised by 10% Triton X-100 plus 0.1 N HCl in anhydrous isopropanol. The absorbance was read using a Bioline plate reader at λ570–630 nm[25–29]. The selectivity of 6i towards HSF cells was also determined as follows[30]^,[31]: SI=IC50HSF cells/IC50of cancer cells
# [21] = tested on: OVCAR-3 (Ovarian Cancer); test: MTT cytotoxicity assay; assay type: cell-based, human; conditions: for IC50: OVCAR-3, MTT, 48 h, mean ± SD from triplicates
# Experimental: as §1
# [22] = tested on: MCF-7 (Breast cancer); test: MTT cytotoxicity assay; assay type: cell-based, human
# Experimental: as §1
# [23] = tested on: A498; conditions: A498, Renal cancer; five-dose 0.01–100 µM
# [24] = tested on: A498; test: cells; conditions: Homo sapiens
# [25] = tested on: SNB-75; test: cells; conditions: Homo sapiens
# [26] = tested on: RPMI-8226; test: cells; conditions: Homo sapiens
# [27] = tested on: HS 578 T; conditions: Breast cancer, five-dose 0.01–100 µM
# [28] = tested on: HCT-116; test: cells; conditions: Homo sapiens
# [29] = tested on: OVCAR-8; test: cells; conditions: Homo sapiens
# [30] = tested on: SK-MEL-5; conditions: SK-MEL-5, Melanoma; five-dose 0.01–100 µM
# [31] = tested on: OVCAR-4; test: cells; conditions: Homo sapiens
# [32] = tested on: UACC-257; conditions: UACC-257, Melanoma; five-dose 0.01–100 µM
# [33] = tested on: K-562; conditions: K-562, Leukaemia; five-dose 0.01–100 µM
# [34] = tested on: SK-MEL-28; conditions: SK-MEL-28, Melanoma; five-dose 0.01–100 µM
smiles,measurement,setting,value
CCOC(=O)CC[C@H](NC(=O)c1ccc(NC(=O)Cn2cnc3c(c(C)nn3-c3ccc(Br)cc3)c2=O)cc1)C(=O)OCC [Compound 6i],GI50,[1]; SK-OV-3,21.8 µM
same,CC50,"[1]; SK-OV-3, read-out: LC50",> 100 µM
same,GI50,[2]; MCF7,3.93 µM
same,CC50,"[2]; MCF7, read-out: LC50",59.4 µM
same,GI50,[3],12.7 µM
same,CC50,[3]; read-out: LC50,> 100 µM
same,GI50,[4]; HOP-92,6.01 µM
same,CC50,"[4]; HOP-92, read-out: LC50",66.2 µM
same,GI50,[5]; U-251,13.2 µM
same,CC50,"[5]; U-251, read-out: LC50",> 100 µM
same,GI50,[6]; BT-549,4.54 µM
same,CC50,"[6]; BT-549, read-out: LC50",> 100 µM
same,TGI,[7],>100 µM
same,GI50,[8]; M14,> 100 µM
same,CC50,"[8]; M14, read-out: LC50",> 100 µM
same,TGI,[9],>100 µM
same,GI50,[10]; NCI-H522,17.1 µM
same,CC50,"[10]; NCI-H522, read-out: LC50",85 µM
same,TGI,[11],>100 µM
same,TGI,[12],32.1 µM
same,TGI,[13],26.8 µM
same,GI50,[14]; K562,> 100 µM
same,CC50,"[14]; K562, read-out: LC50",> 100 µM
same,GI50,[15]; MDA-MB-435,12.2 µM
same,CC50,"[15]; MDA-MB-435, read-out: LC50",96.1 µM
same,TGI,[16],51.3 µM
same,TGI,[17],29.9 µM
same,GI50,[18]; SNB-19,12.1 µM
same,CC50,"[18]; SNB-19, read-out: LC50",61.3 µM
same,GI50,[19]; IGROV-1,23.9 µM
same,CC50,"[19]; IGROV-1, read-out: LC50",> 100 µM
same,IC50,"[20]; Homo sapiens, PC-3, MTT, 48 h, mean ± SD from triplicates",12.4 ± 0.62 µM
same,Selectivity index,[20]; IC50 HSF cells / IC50 PC-3,3.91
same,IC50,"[21]; Homo sapiens, OVCAR-3, 48 h",11.5 µM
same,Selectivity index,[21]; IC50 HSF cells / IC50 OVCAR-3,4.21
same,IC50,[21],11.5 ± 0.58 µM
same,IC50,"[22]; Homo sapiens, MCF7, MCF-7, MTT, 48 h, mean ± SD from triplicates",4.4 ± 0.26 µM
same,Selectivity index,[22]; IC50 HSF cells / IC50 MCF-7,11.02
same,TGI,[23],48.1 µM
same,GI50,[24]; A498,24.9 µM
same,CC50,"[24]; A498, read-out: LC50",93 µM
same,GI50,[25]; SNB-75,14.9 µM
same,CC50,"[25]; SNB-75, read-out: LC50",> 100 µM
same,GI50,[26]; RPMI-8226,22.7 µM
same,CC50,"[26]; RPMI-8226, read-out: LC50",> 100 µM
same,TGI,[27],45.7 µM
same,GI50,[28]; HCT-116,9.85 µM
same,CC50,"[28]; HCT-116, read-out: LC50",> 100 µM
same,GI50,[29]; OVCAR-8,8.17 µM
same,CC50,"[29]; OVCAR-8, read-out: LC50",> 100 µM
same,TGI,[30],43.1 µM
same,GI50,[31]; OVCAR-4,13.4 µM
same,CC50,"[31]; OVCAR-4, read-out: LC50",76.7 µM
same,TGI,[32],>100 µM
same,TGI,[33],>100 µM
same,TGI,[34],22.5 µM
